# Entries after “also recorded” stand apart in the source; their conditions may differ.
# How the values were obtained:
# [1] = system: primary human fetal RPE monolayers; assay: PAX6 / RPE differentiation marker expression of EdU+ RPE cells after scratch; assay type: cell-based
# Description: Ninety-six hours after the scratch, cells were immediately fixed with 4% paraformaldehyde (PFA) in phosphate-buffered saline (PBS) for 15 minutes at room temperature (RT). Cells were washed three times with PBS in between each step. Following fixation, cells were blocked and permeabilized with 3% bovine serum albumin (BSA) and 0.1% Triton X-100 in PBS for 2 hours at RT. Cells were then incubated with an EdU reaction cocktail according to the manufacturer's instructions for 30 minutes at RT, protected from light. Then, cells were incubated overnight with primary antibodies diluted in 3% BSA in PBS. The following morning, cells were incubated with secondary antibodies diluted in 3% BSA in PBS for 2 hours at RT, protected from light. Cells were counterstained with DAPI and then washed. A list of reagents and dilutions used can be found in Table 1.
# Within each region, cell proliferation was quantified by dividing EdU/DAPI doubly positive cells by the total number of DAPI+ cells, expressed as a percentage. PAX6 expression was quantified as the ratio of PAX6+ nuclei among EdU/DAPI doubly positive nuclei, also expressed as a percentage.
# In order to characterize RPE cell fate in response to Lats kinase inhibition in the context of injury, cells were stained with PAX6 and RPE65.
# [2] = system: primary human fetal RPE monolayers; assay: In vitro wound healing (scratch) assay in RPE monolayers; assay type: cell-based; details: for wound healing (wound closure, change in wound area as a percentage): 1 μM, mean±SE
# Description: Approximately 72 hours before wound induction, culture media for primary human fetal RPE either remained supplemented with 5% FBS as above (FBS-containing condition) or was replaced with culture media not containing FBS (FBS-free condition). Culture media for iPSC-derived RPE either remained as X-VIVO media as above (FBS-free condition) or was supplemented with 5% FBS (FBS-containing condition).
# Following 72-hour acclimation period, RPE monolayers were then subjected to a controlled horizontal scratch using the WoundMaker Tool™ (Essen BioScience Ltd., Welwyn Garden City, United Kingdom) according to the protocol provided by the manufacturer. Wells were subsequently washed 1-2 times with their respective media in order to remove cell debris. Cells were then treated with either 1 μM DMSO (as control) or 1 μM TDI-011536 dissolved in either FBS-containing or FBS-free media. To label and track proliferating cells, cells were incubated with 10 μM 5-Ethynyl-2′-deoxyuridine (EdU) for 96 hours.
# Each well was imaged immediately following the scratch injury with a DMI6000B microscope equipped with 10×/0.3 HC PL FLUOTAR Ph1 (Leica Microsystems, Buffalo Grove, IL) and ORCA-Flash4.0 LT camera (Hamamatsu Corp., Bridgewater, NJ). Along the length of each scratch, 2-3 ROIs measuring 1100 μm in length were imaged again 24, 48, 72, and 96 hours after the scratch injury. All ROIs were positioned in the central portion of the scratch. Coordinates of ROIs within each well were stored using Leica Application Suite X software. Non-uniform scratches and/or those with small width or resulting in monolayer detachment were excluded.
# Scratch areas in μm^2 for each ROI were obtained using the Wand Tool in QuPath at each time point (e.g., 0, 24, 48, 72, and 96 hours after the scratch). Wound healing was quantified as the difference in scratch area at each time point normalized to (e.g., divided by) the total area immediately post-scratch, expressed as a percentage.
# A wound healing assay, which involves creating a uniform scratch on a confluent monolayer of cells, is a commonly used method to study response to injury in vitro. To assess whether Hippo pathway inhibition promotes RPE regeneration, a wound healing assay was performed on primary human fetal RPE monolayers grown on 96-well plates in various culture conditions. RPE monolayers were subjected to a horizontal scratch and incubated with EdU and either LKI or vehicle. Wound closure was monitored every 24 hours for 96 hours total (FIGS. 1A and 1B).
compound,measurement,setting,value
O=C(/N=c1\scc(CO)n1Cc1ccccc1)c1c[nH]c2ncccc12 [TDI-011536],"EdU/PAX6 doubly positive cells in the scratch site, LKI vs control (in words)",[1]; 96 hours post-scratch,no significant difference
same,EdU+ cells within the original scratch site that expressed PAX6,"[1]; 96 hours post-scratch, scratch site",99.67±1.46%
same,expression of early and late markers of RPE differentiation (in words),"[1]; in vitro injury model, after exposure",nearly all RPE cells expressed both early and late markers of RPE differentiation
same,"wound healing (wound closure, change in wound area as a percentage)","[2]; 24 hours after scratch, FBS-free media",25.06±0.96%
same,"difference in wound closure, LKI compared to control","[2]; 24 hours, FBS-free media",8.25±1.49%
same,"wound healing (wound closure, change in wound area as a percentage)","[2]; 48 hours after scratch, FBS-free media",58.72±1.37%
same,"difference in wound closure, LKI compared to control","[2]; 48 hours, FBS-free media",17.53±2.00%
same,"wound healing (wound closure, change in wound area as a percentage)","[2]; 72 hours after scratch, FBS-free media",85.14±1.16%
same,"difference in wound closure, LKI compared to control","[2]; 72 hours, FBS-free media",19.78±1.81%
same,"wound healing (wound closure, change in wound area as a percentage)","[2]; 96 hours after scratch, FBS-free media",91.14±1.17%
same,"difference in wound closure, LKI compared to control","[2]; 96 hours, FBS-free media",14.02±1.85%
same,wound closure compared to DMSO (in words),"[2]; FBS-containing media, all timepoints",significantly increased wound closure at all timepoints
same,wound closure compared to control (in words),"[2]; FBS-free media, all time points 24-96 hours, listed as LKI",significantly increased at all time points; also recorded: significantly improved wound closure at all time points

# — patent US20260284020A1, “LATS KINASE INHIBITOR TO TREAT RETINAL DEGENERATION” (Children's Hospital Los Angeles, priority 2023, published 2026)
